Laboratory results from publication PMC9505425, “Targeting of the Mitochondrial TET1 Protein by Pyrrolo[3,2-b]pyrrole Chelators” (International Journal of Molecular Sciences, 2022).
“Also recorded” adds a separate entry of the source.

How the values were obtained:
[1] = molecular target: T1, TET1 protein (Homo sapiens, UniProt Q8NFU7); assay: Fluorometric TET hydroxylase activity assay with purified TET1 enzyme; assay type: biochemical; conditions: for inhibitory activity towards TET1: screened at 10^−7 to 10^−4 M
T1 construct: purchased Active Motif, Carlsbad, CA, USA
Method: Figure 4 and Table S1 show the dependence of TET1 activity on the concentration of compound 1.
Compounds 1–6 were tested for the inhibition of the total 5mC hydroxylase TET enzyme using a purified TET1 enzyme (Active Motif, Carlsbad, CA, USA) by a fluorometric TET hydroxylase activity quantification kit (Abcam, Cambridge, UK). A total of 25 µg of purified TET1 protein was diluted in a TET assay buffer in a 5 mL volumetric flask, containing α-ketoglutarate and ferric sulfate. The concentrations of ascorbic acid, α-ketoglutarate, and ferric sulfate in the diluted TET assay buffer were 2, 1, and 0.1 mM, respectively. Tested compounds were dissolved in DMSO to obtain a concentration of 0.01 M. DMSO solutions of compounds 1–6 were then diluted with a TET assay buffer to concentrations of 10^−6, 10^−5, 10^−4, and 10^−3 M (in 10% of DMSO). Subsequently, 50 μL of the final TET assay buffer containing the TET1 protein and 5 μL of chelator’s solution was applied to each sample well. In control wells (TET1 without inhibitors), 5 μL of the final TET assay buffer with 10% DMSO was used instead of chelator’s solution. The final concentrations of chelators in a well plate were 10^−7, 10^−6, 10^−5, 10^−4, and 0 M with less than 1% of final concentration of DMSO. The following steps were performed according to manufacturer’s protocol. The TET1 protein converts methylated substrate to hydroxymethylated products, which could be recognized by a specific antibody. We determined the residual activity of the TET1 protein by measuring a fluorescence intensity on an enzyme-linked immunoabsorbent assay reader (ELISA), Infinite® 200 PRO (Tecan, Switzerland, Switzerland), at an excitation wavelength at 530 nm and an emission wavelength at 590 nm. Each concentration was measured twice within one test, and each test was repeated three times. IC50 values of active inhibitors were determined using GraphPad Prism 8 via nonlinear regression.

[2] = molecular target: T2, recombinant His-tagged TET1 protein (Homo sapiens, UniProt Q8NFU7); assay: Microscale thermophoresis binding to His-tagged TET1; conditions: MST, HEPES pH 7.5, 50 nM TET1
T2 construct: purchased Active Motif, Carlsbad, CA, USA
Method: We observed a ligand concentration-dependent decrease in labeled protein fluorescence (Figure 5), and fluorescence measurements during serial dilution were performed to discriminate between binding-specific fluorescence quenching (Figure 6) and loss of fluorescence due to protein precipitation.
For this test, the remainder of tubes 1 to 3 and 14 to 16 prepared in the original binding assay were centrifuged for 10 min at 15,000× g. Thereafter, 10 μL of each sample was removed and mixed with an equal volume of SD-mix (4% SDS and […] (assay buffer)) and heated to 95 °C for 5 min to denature the protein. Subsequently, samples were loaded to standard capillaries, and the fluorescence was detected using a Monolith NT.115. […] The KD value was calculated from ligand concentration-dependent changes in normalized fluorescence (Fnorm) of the TET1 protein after 25 s of thermophoresis, based on the law of mass action using the NT. Affinity Analysis software. […]
Microscale thermophoresis (MST) is a sensitive method that can be used to assess biomolecular interactions and has been utilized to study interactions between a variety of binding partners of different molecular sizes. […] Signals were recorded using 20% MST power and 40% LED power after 25 s. Measurement was repeated two times, and data were analyzed using the NTAnalysis software. […]

T1 sequence (Q8NFU7 whole entry): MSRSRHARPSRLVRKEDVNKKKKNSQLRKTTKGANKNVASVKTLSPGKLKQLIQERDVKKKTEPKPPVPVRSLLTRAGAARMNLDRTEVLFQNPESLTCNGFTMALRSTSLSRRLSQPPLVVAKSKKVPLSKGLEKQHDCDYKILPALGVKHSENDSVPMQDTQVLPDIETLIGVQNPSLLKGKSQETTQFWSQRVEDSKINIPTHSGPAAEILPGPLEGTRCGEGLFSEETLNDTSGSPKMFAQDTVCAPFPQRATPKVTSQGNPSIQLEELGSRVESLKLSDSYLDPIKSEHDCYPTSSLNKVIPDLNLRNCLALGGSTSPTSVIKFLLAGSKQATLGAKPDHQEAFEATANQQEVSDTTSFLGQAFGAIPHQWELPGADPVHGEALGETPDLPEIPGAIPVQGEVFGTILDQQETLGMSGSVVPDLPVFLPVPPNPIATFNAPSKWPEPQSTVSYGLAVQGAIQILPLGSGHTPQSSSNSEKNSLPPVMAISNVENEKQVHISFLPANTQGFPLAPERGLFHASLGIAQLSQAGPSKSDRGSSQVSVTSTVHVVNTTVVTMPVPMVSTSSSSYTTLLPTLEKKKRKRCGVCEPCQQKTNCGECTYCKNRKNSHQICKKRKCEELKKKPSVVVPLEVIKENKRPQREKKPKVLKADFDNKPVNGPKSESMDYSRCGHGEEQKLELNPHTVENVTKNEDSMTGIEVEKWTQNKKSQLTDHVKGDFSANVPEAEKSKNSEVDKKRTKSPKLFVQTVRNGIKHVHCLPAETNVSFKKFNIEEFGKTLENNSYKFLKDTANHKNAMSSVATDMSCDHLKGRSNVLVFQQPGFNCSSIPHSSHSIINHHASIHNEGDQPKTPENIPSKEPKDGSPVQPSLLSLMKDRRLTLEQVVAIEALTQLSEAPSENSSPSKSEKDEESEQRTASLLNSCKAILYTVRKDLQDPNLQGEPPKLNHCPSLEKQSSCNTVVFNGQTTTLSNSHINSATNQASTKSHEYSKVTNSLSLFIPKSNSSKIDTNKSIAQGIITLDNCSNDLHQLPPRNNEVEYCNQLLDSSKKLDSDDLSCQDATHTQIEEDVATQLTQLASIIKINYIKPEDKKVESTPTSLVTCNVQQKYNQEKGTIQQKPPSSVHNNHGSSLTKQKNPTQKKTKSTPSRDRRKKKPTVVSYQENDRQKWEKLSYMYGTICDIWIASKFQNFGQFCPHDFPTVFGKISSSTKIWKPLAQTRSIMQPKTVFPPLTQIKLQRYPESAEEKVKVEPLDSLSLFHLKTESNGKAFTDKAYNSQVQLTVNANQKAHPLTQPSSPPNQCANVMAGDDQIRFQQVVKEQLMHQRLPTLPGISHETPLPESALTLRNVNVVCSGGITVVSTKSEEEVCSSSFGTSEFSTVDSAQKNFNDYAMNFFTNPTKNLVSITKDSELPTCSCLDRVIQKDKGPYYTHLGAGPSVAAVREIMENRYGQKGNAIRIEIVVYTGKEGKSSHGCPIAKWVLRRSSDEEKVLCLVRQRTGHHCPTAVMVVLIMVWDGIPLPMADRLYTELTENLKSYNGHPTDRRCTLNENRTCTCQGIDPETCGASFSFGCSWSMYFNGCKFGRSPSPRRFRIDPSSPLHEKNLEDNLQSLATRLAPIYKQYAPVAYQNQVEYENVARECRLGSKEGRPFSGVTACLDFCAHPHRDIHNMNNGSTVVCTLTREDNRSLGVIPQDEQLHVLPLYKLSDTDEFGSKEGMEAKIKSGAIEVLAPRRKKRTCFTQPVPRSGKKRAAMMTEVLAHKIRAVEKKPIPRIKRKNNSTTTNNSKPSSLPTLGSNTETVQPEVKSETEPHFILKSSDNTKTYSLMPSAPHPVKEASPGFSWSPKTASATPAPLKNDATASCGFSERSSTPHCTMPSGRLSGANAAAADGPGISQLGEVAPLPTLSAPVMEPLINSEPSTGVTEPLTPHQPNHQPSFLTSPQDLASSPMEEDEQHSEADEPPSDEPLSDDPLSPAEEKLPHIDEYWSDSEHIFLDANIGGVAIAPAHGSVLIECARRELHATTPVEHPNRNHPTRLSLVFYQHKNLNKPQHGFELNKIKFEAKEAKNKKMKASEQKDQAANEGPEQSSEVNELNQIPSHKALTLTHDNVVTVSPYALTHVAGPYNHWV
T2 sequence (Q8NFU7 whole entry): as above

Cc1ccc(-n2c(-c3ccc(C(=O)NN)cc3)cc3c2cc(-c2ccc(C(=O)NN)cc2)n3-c2ccc(C)cc2)cc1 [Compound 1]
average residual TET activity (%) ([1]; Log c 4): 5.108%
average residual TET activity (%) ([1]; Log c 5): 19.97%
average residual TET activity (%) ([1]; Log c 6): 56.08%
average residual TET activity (%) ([1]; Log c 7): 82.59%
Kd [2]: 27.2 ± 0.9 µM

CCN(CC)c1ccc(/C=N/NC(=O)c2ccc(-c3cc4c(cc(-c5ccc(C(=O)N/N=C/c6ccc(N(CC)CC)cc6O)cc5)n4-c4ccc(C)cc4)n3-c3ccc(C)cc3)cc2)c(O)c1 [Compound 2]
inhibitory activity towards TET1 [1]: no inhibitory effect; also recorded: no significant inhibition

Cc1ccc(-n2c(-c3ccc(C(=O)N/N=C/c4ccc(O)cc4O)cc3)cc3c2cc(-c2ccc(C(=O)N/N=C/c4ccc(O)cc4O)cc2)n3-c2ccc(C)cc2)cc1 [Compound 4]
inhibitory activity towards TET1 [1]: no inhibitory effect; also recorded: no significant inhibition
